Drawing on PubChem BioAssay (NCI), this text covers TGI and GI50 for 12 molecules.

Test systems include HCT-15 colon; HOP-62 NSCLC; OVCAR-5 ovarian; NCI-H460 lung; MOLT-4 leukemia; SK-MEL-2 melanoma; HL-60(TB) leukemia; SNB-75 CNS; RXF 393 renal; EKVX NSCLC.
Holding throughout (test): inhibition of tumour cell growth, NCI panel, 48 h

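Where inhibition never reached the appropriate level, the endpoint shown equals the highest concentration tested. Otherwise, values were interpolated linearly from a five-concentration, 48-hour dose response in 96-well plates. The concentration for 50% growth inhibition is given as GI50. TGI denotes the concentration required for complete inhibition of growth.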 A value given as a limit tells only on which side of the number the result lay.

`O=C(CCCn1ccnc1[N+](=O)[O-])NCCn1ccnc1`: the TGI in the assay on HCT-15 colon, with HOP-62 NSCLC, with OVCAR-5 ovarian, in the assay on NCI-H460 lung, in the assay on MOLT-4 leukemia and in the assay with SK-MEL-2 melanoma was > 100 µM each time. The TGI with HL-60(TB) leukemia and with SNB-75 CNS was > 100 µM each time.
With `CCOC(=O)c1ccc(N2C(=O)/C(=C\OC)c3ccccc3C2=O)cc1`, the TGI was > 100 µM with HCT-15 colon; > 100 µM in the assay with OVCAR-5 ovarian; 61.3 µM in the assay on RXF 393 renal; 89.3 µM in the assay on MOLT-4 leukemia; > 100 µM with EKVX NSCLC; > 100 µM with SK-MEL-2 melanoma. Also, the TGI in the assay on SNB-75 CNS was > 100 µM.
On to `COc1ccc(-c2nc(-c3ccccc3)c(-c3ccccc3)n2C2CC2)cc1OC1CCCC1`, for which the GI50 was 7.26 µM in the assay with HCT-15 colon; > 165 µM with HOP-62 NSCLC; > 165 µM in the assay on OVCAR-5 ovarian; 11 µM in the assay with NCI-H460 lung; 45.7 µM with MOLT-4 leukemia; 105 µM with SK-MEL-2 melanoma. The GI50 is 28.3 µM in the assay with HL-60(TB) leukemia and 48.4 µM with SNB-75 CNS. Moreover, the TGI in the assay with HCT-15 colon, with HOP-62 NSCLC, in the assay on OVCAR-5 ovarian, in the assay with NCI-H460 lung, with MOLT-4 leukemia and in the assay with SK-MEL-2 melanoma was > 165 µM throughout. The TGI in the assay with HL-60(TB) leukemia is 141 µM; in the assay with SNB-75 CNS, > 165 µM.
As to `COc1ccc(/C=C\c2cc(OC)c(OC)c(OC)c2)cc1OCC(=O)Nc1nc2ccc(C(F)(F)F)cc2s1`, the GI50 was 3.24 µM in the assay on HCT-15 colon; 5.22 µM in the assay with HOP-62 NSCLC; 5.98 µM in the assay on OVCAR-5 ovarian; 3.55 µM with NCI-H460 lung; 3.75 µM with MOLT-4 leukemia; 6.25 µM in the assay with EKVX NSCLC. For the same molecule, the figures for the GI50 in the assay with SK-MEL-2 melanoma and in the assay with SNB-75 CNS were 3.98 µM and 1.58 µM, respectively. In addition, the TGI in the assay with HCT-15 colon, in the assay with HOP-62 NSCLC, in the assay on OVCAR-5 ovarian, in the assay with NCI-H460 lung, in the assay with MOLT-4 leukemia and in the assay on EKVX NSCLC was > 100 µM each time. Further, the figures for the TGI with SK-MEL-2 melanoma and in the assay on SNB-75 CNS were > 100 µM and 6.47 µM, respectively.
On to `O=C([CH-]C(=O)c1ccccc1)c1ccccc1.O=C([CH-]C(=O)c1ccccc1)c1ccccc1.[Nd+3].[OH-].[OH3+]`, for which the GI50 was 8.5 µM with HCT-15 colon; 3.58 µM with HOP-62 NSCLC; 22.3 µM with OVCAR-5 ovarian; 6.18 µM in the assay with NCI-H460 lung; 3.88 µM with MOLT-4 leukemia; 9.99 µM in the assay with EKVX NSCLC. For the same molecule, the GI50 in the assay with SK-MEL-2 melanoma is 9.48 µM; in the assay with HL-60(TB) leukemia, 1.8 µM; in the assay on SNB-75 CNS it was 2.49 µM. In addition, the TGI in the assay with HCT-15 colon came to 34.1 µM; in the assay on HOP-62 NSCLC it was 18.4 µM; in the assay with OVCAR-5 ovarian, 81.5 µM; with NCI-H460 lung, 25.3 µM; in the assay with MOLT-4 leukemia, 33.1 µM; in the assay with EKVX NSCLC it was 43.8 µM. In addition, the TGI with SK-MEL-2 melanoma came to 27 µM; in the assay with HL-60(TB) leukemia, 8.17 µM; in the assay with SNB-75 CNS it was 7.25 µM.
As for `CC(C)(O)C1OCC(C2CCC3(C)C4=CCC5C(C)(C)C(O)CCC5(C)C4CCC23C)CC1O` (centres undefined), the TGI with HCT-15 colon is 28 µM; in the assay with OVCAR-5 ovarian, 39.6 µM; in the assay on NCI-H460 lung, 26.1 µM; in the assay with MOLT-4 leukemia, 41.9 µM; with EKVX NSCLC, 32.3 µM; in the assay with SK-MEL-2 melanoma, 48.7 µM. In addition, the results for the TGI in the assay with HL-60(TB) leukemia and in the assay with SNB-75 CNS were > 100 µM and 34.6 µM, respectively.
For the molecule `S=C(N/N=C/c1ccccn1)Nc1ccccn1`, the GI50 in the assay on HCT-15 colon is 0.575 µM; with HOP-62 NSCLC, 1.73 µM; in the assay with OVCAR-5 ovarian it was 3.86 µM; with RXF 393 renal, 0.485 µM; in the assay with NCI-H460 lung, 0.962 µM; in the assay on MOLT-4 leukemia, 0.467 µM. Also, the GI50 is 2.35 µM with SK-MEL-2 melanoma and 0.316 µM with HL-60(TB) leukemia. Moreover, the TGI is > 100 µM in the assay with HCT-15 colon; 9.22 µM in the assay on HOP-62 NSCLC; > 100 µM in the assay with OVCAR-5 ovarian; 4.15 µM in the assay on RXF 393 renal; 12.6 µM with NCI-H460 lung; > 100 µM in the assay with MOLT-4 leukemia. Further, the TGI with SK-MEL-2 melanoma is 9.74 µM; with HL-60(TB) leukemia it was 1.25 µM.
On to `COc1nc(C)cc2c(=O)n(-c3ccccc3)n(CCCN3CCN(c4ccc(Cl)cc4)CC3)c(=O)c12`, for which the GI50 is > 50 µM in the assay with HCT-15 colon; 24.5 µM in the assay on HOP-62 NSCLC; > 50 µM with OVCAR-5 ovarian; 24.6 µM in the assay with NCI-H460 lung; > 50 µM in the assay with MOLT-4 leukemia; > 50 µM in the assay with EKVX NSCLC. Further, the GI50 with SK-MEL-2 melanoma was > 50 µM; with HL-60(TB) leukemia, > 50 µM; in the assay with SNB-75 CNS it was 14.1 µM. In addition, the TGI with HCT-15 colon, in the assay with HOP-62 NSCLC, in the assay on OVCAR-5 ovarian, with NCI-H460 lung, with MOLT-4 leukemia and in the assay with EKVX NSCLC was > 50 µM each time. Moreover, the TGI was > 50 µM with SK-MEL-2 melanoma, > 50 µM in the assay on HL-60(TB) leukemia and 47.6 µM in the assay with SNB-75 CNS.
On to `CN(c1ccccc1)C(c1ccccc1)C(O)c1ccccc1` (centres undefined), for which the TGI with HCT-15 colon worked out at 40.3 µM; in the assay on HOP-62 NSCLC, 38 µM; with OVCAR-5 ovarian, 37.3 µM; with NCI-H460 lung it was 36.2 µM; with MOLT-4 leukemia, 42.1 µM; in the assay on EKVX NSCLC it was 62.7 µM. The TGI with SK-MEL-2 melanoma was found to be 31.8 µM; in the assay with HL-60(TB) leukemia, 37.7 µM; in the assay on SNB-75 CNS, 64.4 µM.
Take `O=c1cc2ccccc2nn1-c1ccccc1Cl`: the TGI in the assay on HCT-15 colon, in the assay on HOP-62 NSCLC, in the assay with OVCAR-5 ovarian, in the assay with NCI-H460 lung, with EKVX NSCLC and in the assay on SK-MEL-2 melanoma was > 100 µM each time. In the assay on SNB-75 CNS, the TGI is > 100 µM.
As to `O=C1C(=O)N(c2ccc(Cl)c(Cl)c2)C(=O)C(=O)C1c1nc2ccccc2o1`, the TGI in the assay on HCT-15 colon, with HOP-62 NSCLC, in the assay with OVCAR-5 ovarian, with NCI-H460 lung, in the assay on MOLT-4 leukemia and in the assay on SK-MEL-2 melanoma was > 100 µM throughout. Further, the TGI in the assay with HL-60(TB) leukemia was 53 µM; with SNB-75 CNS, > 100 µM.
Take `Cc1cc(C)nc(Nc2nc3ccc([N+](=O)[O-])cc3[nH]2)n1`: the TGI in the assay with HCT-15 colon, in the assay with HOP-62 NSCLC, in the assay on OVCAR-5 ovarian, in the assay on NCI-H460 lung, in the assay with MOLT-4 leukemia and with EKVX NSCLC was > 100 µM each time. For the same molecule, the TGI with SK-MEL-2 melanoma and in the assay on HL-60(TB) leukemia was > 100 µM throughout.
